Measurements reported in patent US8865701B2, “Spiropyrrolidine beta-secretase inhibitors for the treatment of alzheimer'S disease” (Merck Sharp & Dohme Corp., priority 2009, dated 2014).

target: BACE 1 (Homo sapiens (Human), UniProt P56817); assay: ECL assay of beta-secretase (BACE) enzyme inhibition; type: biochemical; details: homogeneous end point ECL assay, biotinylated BACE substrate, soluble human enzyme, pH 6.5, rt
Description: Enzyme inhibition is determined as follows.
ECL Assay: A homogeneous end point electrochemiluminescence (ECL) assay is performed using a biotinylated BACE substrate. The Km of the substrate is approximated at 50 μM. A typical reaction contains approximately 0.6 nM enzyme, 0.25 μM of the substrate, and buffer (50 mM Pipes, pH 6.5, 0.1 mg/ml BSA, 0.2% CHAPS, 15 mM EDTA and 1 mM deferoxamine) in a total reaction volume of 100 μl. The reaction proceeds for 1-2 hrs and is then stopped by the addition of 150 μL of a quench cocktail solution (25 μl M Tris-HCl, pH 8.0, 50 μl INC buffer (2% BSA, 0.2% Tween-20 and 0.05% sodium azide diluted in Phosphate buffered saline (PBS) plus 75 μL PBS), containing Streptavidin coated magnetic beads and ruthenylated antibody which specifically recognizes the C-terminal residue of the product. The samples are subjected to M-384 (Igen Inc., Gaithersburg, Md.) analysis. Under these conditions, less than 10% of substrate is processed by BACE 1. The enzyme used in these studies is soluble (transmembrane domain and cytoplasmic extension excluded) human protein produced in a baculovirus expression system. To measure the inhibitory potency for compounds, 10 concentrations of inhibitors are prepared starting from 200 μM with three fold series dilution. Solutions of the inhibitor in DMSO are included in the reaction mixture (final DMSO concentration is 10%). All experiments are conducted at rt using the standard reaction conditions described above. To determine the IC50 of the compound, a four parameter equation is used for curve fitting. The errors in reproducing the dissociation constants are typically less than two-fold.

BACE 1, sequence (P56817 46-457): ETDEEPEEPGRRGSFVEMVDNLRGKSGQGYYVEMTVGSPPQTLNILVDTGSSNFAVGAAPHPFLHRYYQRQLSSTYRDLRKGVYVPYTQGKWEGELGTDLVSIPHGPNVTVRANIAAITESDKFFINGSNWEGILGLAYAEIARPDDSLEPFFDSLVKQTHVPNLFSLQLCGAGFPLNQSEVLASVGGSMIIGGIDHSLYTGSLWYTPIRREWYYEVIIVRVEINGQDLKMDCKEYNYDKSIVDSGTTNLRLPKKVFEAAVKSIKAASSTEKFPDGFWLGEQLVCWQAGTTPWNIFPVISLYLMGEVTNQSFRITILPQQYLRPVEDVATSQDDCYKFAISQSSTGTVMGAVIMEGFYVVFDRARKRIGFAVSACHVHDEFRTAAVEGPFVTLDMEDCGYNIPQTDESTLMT

SMILES	IC50
O=C([C@@H]1CNC[C@]12CCSc1ccccc12)N1CCC(c2ccccc2)CC1 [Example 38, (3R,4S)-2′,3′-dihydrospiro[pyrrolidine-3,4′-thiochromen]-4-yl(4-phenylpiperidin-1-yl)methanone]	12000 nM
O=C([C@@H]1CNC[C@]12CCCc1cc(Cl)ccc12)N1CCC(c2ccccc2)CC1 [Example 19, [(1R,4′S)-6-chloro-3,4-dihydro-2H-spiro[naphthalene-1,3′-pyrrolidin]-4′-yl](4-phenylpiperidin-1-yl)methanone]	920 nM
CC(C)c1cccc2c1CCC[C@]21CNC[C@H]1C(=O)N1CCC(c2ccccc2)CC1 [Example 31, (4-phenylpiperidin-1-yl)[(1R,4′S)-5-(propan-2-yl)-3,4-dihydro-2H-spiro[naphthalene-1,3′-pyrrolidin]-4′-yl]methanone]	24 nM
CCc1ccc2c(c1)CCC[C@]21CNC[C@H]1C(=O)N1CCC(c2ccccc2)CC1 [Example 44, [(1R,4′S)-6-ethyl-3,4-dihydro-2H-spiro[naphthalene-1,3′-pyrrolidin]-4′-yl](4-phenylpiperidin-1-yl)methanone]	19000 nM
COC(C)(C)C1CCCCN1C(=O)[C@@H]1CNC[C@@]12CCCc1ccccc12 (stereo partly drawn) [Example 10, (1S,4′S)-3,4-dihydro-2H-spiro[naphthalene-1,3′-pyrrolidin]-4′-yl[2-(2-methoxypropan-2-yl)piperidin-1-yl]methanone]	20000 nM
COc1cccc2c1OCC[C@]21CNC[C@H]1C(=O)N1CC[C@@H](c2ccccc2)C[C@H]1C1CCCC(F)(F)C1 (stereo partly drawn) [Example 3, [(4R,4′S)-8-methoxy-2,3-dihydrospiro[chromene-4,3′-pyrrolidin]-4′-yl][(2S,4R)-2-(3,3-difluorocyclohexyl)-4-phenylpiperidin-1-yl]methanone]	2190 nM
Cc1cccc(C2CC(c3ccccc3)CCN2C(=O)[C@@H]2CNC[C@]23CCCc2nc(Cl)ccc23)c1 (stereo partly drawn) [Example 100, [(3R,4S)-2′-chloro-7′,8′-dihydro-6′H-spiro[pyrrolidine-3,5′-quinolin]-4-yl][2-(3-methylphenyl)-4-phenylpiperidin-1-yl]methanone]	450 nM
O=C([C@@H]1CNC[C@]12CCCc1nc(Cl)ccc12)N1CCC2(C=Cc3ccccc32)CC1c1ccccc1 (stereo partly drawn) [Example 77, [(3R,4S)-2′-chloro-7′,8′-dihydro-6′H-spiro[pyrrolidine-3,5′-quinolin]-4-yl](2′-phenyl-1′H-spiro[indene-1,4′-piperidin]-1′-yl)methanone]	200 nM
O=C([C@@H]1CNC[C@]12CCc1cc(Br)ccc12)N1CCC(c2ccccc2)CC1 [Example 30, [(1R,4′S)-5-bromo-2,3-dihydrospiro[indene-1,3′-pyrrolidin]-4′-yl](4-phenylpiperidin-1-yl)methanone]	14000 nM
CC(C)[C@@H]1C[C@H](c2ccccc2)CCN1C(=O)[C@@H]1CNC[C@]12CCCc1ccccc12 [Example 7, (1R,4′S)-3,4-dihydro-2H-spiro[naphthalene-1,3′-pyrrolidin]-4′-yl[(2S,4R)-4-phenyl-2-(propan-2-yl)piperidin-1-yl]methanone]	22000 nM
O=C([C@@H]1CNC[C@]12CCc1ccccc12)N1CC[C@@H](c2ccccc2)C[C@H]1c1ccccc1 [Example 21, (1R,4′S)-2,3-dihydrospiro[indene-1,3′-pyrrolidin]-4′-yl[(2S,4R)-2,4-diphenylpiperidin-1-yl]methanone]	71 nM
